Measured values from patent US20100267712A1, “ISOINDOLINE COMPOUNDS FOR THE TREATMENT OF SPINAL MUSCULAR ATROPHY AND OTHER USES” (The United States of America, as represented by the …, priority 2007, published 2010).
pEC50: −log10 of the molar value.

Test system: SMN2-linked luciferase-reporter gene construct
Test: SMN Splice Reporter Assay (SMN2-linked luciferase reporter)
Type: cell-based
Conditions: for pEC50: cervical carcinoma cell lines, SMN2 splice luciferase reporter; for Fold Increase: fold-increase of luciferase over baseline reading of transformed cells without any test compound
From the text: As previously discussed, SMN1 is the gene deleted in SMA patients; the SMN2 gene remains intact in both SMA and normal patients. Therefore, SMN2 provides a potential means of increasing SMN production in SMA patients and is, thus, a target for developing SMA treatments. SMN2 is identical to SMN1 with the exception of a single base pair change that results in reduced expression of the gene. The reduction is based on the creation of an alternatively spliced RNA that produces an unstable protein carrying a deletion of exon 7. Both full length SMN and exon 7 deleted SMN are produced by the SMN2 gene via alternative RNA splicing, but the major product is the unstable deleted form.
Cervical carcinoma cell lines were transformed with a SMN2-linked luciferase-reporter gene construct. The reporter is designed to detect shifts in the alternative splicing of SMN2 sequences. In particular, the reporter is constructed as a fusion of the alternatively spliced sequences of the SMN2 gene and the luciferase gene. Luciferase sequences are in the correct translational reading frame only when the SMN2 sequences are spliced according to the normal SMN1 mechanism (e.g., splicing to include exon 7), which allows for translation of the stable SMN protein. Compounds were tested in the assay by administering the compound to the cell line and detecting an increase in the luciferase activity. The assay is described in greater detail in Zhang et al., Gene Ther., 8: 1532-8 (2001). Compounds were administered as described in Lunn et al, Chem. & Biol, 11: 1489-1493 (2004).
The results are reported as a fold-increase over a baseline reading of transformed cells without any test compound. The EC50 value also is reported in Table 1 for some exemplary compounds of the invention.

Compound | pEC50 | Fold Increase
Cn1ccc2cc(N3Cc4ccc(-c5cccnc5)cc4C3=O)ccc21 [Example 122042] | 6.14 | 1.422
COc1ccc2c(c1)C(=O)N(c1ccc3ccc(OC)nc3c1)C2 [Example 123936] | 6.11 | 1.429
COc1ccc2c(c1)C(=O)N(c1cc3cc[nH]c3cn1)C2 [Example 121514] |  | 1.172
O=C1c2cc3c(cc2CN1c1ccc(Br)cn1)OCCO3 [Example 118736] | 6.86 | 1.413
Cn1ccc2ccc(N3Cc4ccc(OC(F)F)cc4C3=O)cc21 [Example 120591] | 6.29 | 1.709
COc1ccc2c(c1)C(=O)N(c1ccc3c(c1)cc(CN(C)C)n3C)C2 [Example 124772] |  | 1.148
COc1ccc2c(c1)C(=O)N(c1ccc3c(c1)cc(-c1ccccc1)n3C)C2 [Example 124979] |  | 1.378
CCc1ccc2c(c1)C(=O)N(c1ccc3ccsc3c1)C2 [Example 122683] | 6.90 | 1.582
Cn1ccc2ccc(N3Cc4ccccc4C3=O)cc21 [Example 120435] | 6.19 | 1.585
Cc1ccc2c(c1)C(=O)N(c1ccc3c(c1)cc(C)n3C)C2 [Example 123015] | 7.28 | 1.43
Cn1ccc2ccc(N3Cc4cc(Cl)ccc4C3=O)cc21 [Example 120779] | 6.50 | 1.704
COc1ccc2c(c1)C(=O)N(c1ccc3c(c1)c(C)c(C)n3C)C2 [Example 120597] | 6.11 | 1.434
COc1ccc2c(c1)C(=O)N(c1ccc3[nH]ccc3n1)C2 [Example 121515] | 6.65 | 1.24
CC(=O)Nc1cccc2c1C(=O)N(c1ccc3c(ccn3C)c1)C2 [Example 121081] | 6.75 | 1.581
COc1ccc2c(c1)C(=O)N(c1cc3ccn(C)c3cn1)C2 [Example 121792] | 7.00 | 1.384
Cc1cccc2c1C(=O)N(c1ccc3c(ccn3C)c1)C2 [Example 120278] | 6.79 | 1.502
O=C1c2cc(Br)ccc2CN1c1ccc2ncccc2c1 [Example 124033] | 6.65 | 1.795
COCn1ccc2ccc(N3Cc4ccc(Br)cc4C3=O)cc21 [Example 120430] | 6.51 | 1.374
COc1ccc2c(c1)C(=O)N(c1ccc3c(c1)OCC(=O)N3)C2 [Example 119656] | 7.11 | 1.375
O=C1c2ccccc2CN1c1ccc(Br)cn1 [Example 112648] | 6.34 | 1.264
CC(C)Oc1ccc2c(c1)C(=O)N(c1ccc3sccc3c1)C2 [Example 122553] |  | 1.082
CCCOc1ccc2c(c1)C(=O)N(c1ccc3c(ccn3C)c1)C2 [Example 121785] | 7.10 | 1.29
Cn1ccc2cc(N3Cc4ccccc4C3=O)ccc21 [Example 120287] | 6.80 | 1.433

Compound | pEC50 | Fold Increase
Cn1ccc2ccc(N3Cc4ccc(NC=O)cc4C3=O)cc21 [Example 124981] |  | 1.638
COCc1cc2cc(N3Cc4ccc(OC)cc4C3=O)ccc2n1C [Example 124328] |  | 1.305
COc1cccc2c1C(=O)N(c1ccc3c(ccn3C)c1)C2 [Example 120125] | 6.27 | 1.332
COc1ccc2c(c1)C(=O)N(c1ccc3[nH]ccc3c1)C2 [Example 119657] |  | 1.21
COc1ccc2c(c1)C(=O)N(c1ccc3cc4n(c3c1)CCC4)C2 [Example 124774] | 6.49 | 1.369
COc1ccc2c(c1)C(=O)N(c1ccc3nccc(OC)c3c1)C2 [Example 123205] |  | 1.227
COc1ccc2c(c1)C(=O)N(c1ccc3nc[nH]c3c1)C2 [Example 119866] | 6.38 | 1.313
COc1ccc2c(c1)C(=O)N(c1ccc3c(c1)N(C)CCN3C)C2 [Example 122436] | 5.23 | 1.354
Cn1ccc2ccc(N3Cc4ccc(-c5cccnc5)cc4C3=O)cc21 [Example 122318] | 6.34 | 1.94
O=C1c2cc3c(cc2CN1c1ccc2ncccc2c1)OCCO3 [Example 120787] | 7.82 | 1.807
CCOC1CS(=O)(=O)c2cc(N3Cc4ccc(OC)cc4C3=O)ccc21 (stereo not drawn) [Example 124031] |  | 1.106
O=C1c2cc3c(cc2CN1c1ccc2ccoc2c1)OCCO3 [Example 118903] | 8.22 | 1.458
COc1ccc2c(c1)C(=O)N(c1ccc3ccn(CCN)c3c1)C2 [Example 121080] |  | 1.163
Cn1ccc2cc(N3Cc4ccc(C(F)(F)F)cc4C3=O)ccc21 [Example 122037] | 6.06 | 1.406
CCCn1ccc2ccc(N3Cc4ccc(OC)cc4C3=O)cc21 [Example 119868] | 5.64 | 1.582
Cn1ccc2cc(N3Cc4cccc(N)c4C3=O)ccc21 [Example 120427] | 6.53 | 1.606
O=C1c2cc(OC(F)F)ccc2CN1c1ccc2ccsc2c1 [Example 121512] | 6.65 | 1.766
Cn1ccc2ccc(N3Cc4ccc(NC(=O)c5ccccc5)cc4C3=O)cc21 [Example 124775] |  | 1.216
CC(=O)Nc1ccc2c(c1)CN(c1ccc3c(ccn3C)c1)C2=O [Example 121508] |  | 1.201
COc1ccc2c(c1)C(=O)N(c1ccc3scc(C)c3c1)C2 [Example 123012] | 6.57 | 1.773
COc1ccc2c(c1)C(=O)N(c1ccc3cccnc3c1)C2 [Example 122821] | 7.43 | 1.401
COc1ccc2c(c1)C(=O)N(c1ccc3c(Cl)ccnc3c1)C2 [Example 123711] | 5.80 | 1.262
CCOc1ccc2c(c1)C(=O)N(c1ccc3sccc3c1)C2 [Example 122554] | 7.57 | 1.475

Compound | pEC50 | Fold Increase
COCn1ccc2ccc(N3Cc4ccc(OC)cc4C3=O)cc21 [Example 120431] | 6.92 | 1.311
CC=Cc1ccc2c(c1)C(=O)N(c1ccc3c(ccn3C)c1)C2 [Example 119520] | 7.35 | 1.54
COc1ccc2c(c1)CN(c1ccc3c(ccn3C)c1)C2=O [Example 120782] | 6.74 | 1.49
O=C1c2ccccc2CN1c1ccc2c(c1)OCO2 [Example 116238] | 5.61 | 1.235
COc1cc2c(cc1F)CN(c1ccc3c(ccn3C)c1)C2=O [Example 121926] | 6.70 | 1.533
COc1ccc2c(c1)CN(c1ccc3ncccc3c1)C2=O [Example 120951] | 6.87 | 1.769
CCCOc1ccc2c(c1)C(=O)N(c1ccc3ccn(C)c3c1)C2 [Example 124325] | 6.84 | 1.69
COc1ccc2c(c1)C(=O)N(c1ccc(Br)cn1)C2 [Example 118737] | 6.38 | 1.358
O=C1c2cc(OC(F)F)ccc2CN1c1ccc2c(ccn2C(F)F)c1 [Example 121787] |  | 1.221
O=C1c2cc(O)ccc2CN1c1ccc2sccc2c1 [Example 122430] | 7.07 | 1.769
CC(C)C(=O)Nc1ccc2c(c1)C(=O)N(c1ccc3c(ccn3C)c1)C2 [Example 124863] |  | 1.251
C/C=C(/C)c1ccc2c(c1)C(=O)N(c1ccc3c(ccn3C)c1)C2 [Example 122041] | 7.12 | 1.606
Cn1ccc2ccc(N3Cc4ccc(N5CCOCC5)cc4C3=O)cc21 [Example 124539] |  | 1.652
COc1cc2c(cc1OC)C(=O)N(c1ccc3c(c1)cc(C)n3C)C2 [Example 124036] | 5.79 | 1.34
Cn1ccc2ccc(N3Cc4ccc(-c5ccccc5)cc4C3=O)cc21 [Example 120949] | 6.43 | 1.816
COc1ccc2c(c1)C(=O)N(c1ccc3ncncc3c1)C2 [Example 121791] | 5.97 | 1.448
CCCCc1ccc2c(c1)C(=O)N(c1ccc3c(ccn3C)c1)C2 [Example 121928] | 6.83 | 1.384
Cn1ccc2cc(N3Cc4ccc(-c5cncnc5)cc4C3=O)ccc21 [Example 122181] |  | 1.169
COc1ccc2c(c1)CN(c1ccc3ccn(C)c3c1)C2=O [Example 119870] | 6.62 | 1.83
Cn1ccc2cc(N3Cc4ccc(N5CCOCC5)cc4C3=O)ccc21 [Example 123587] |  | 1.256
COc1ccc2c(c1)C(=O)N(c1ccc3c(c1)c(Br)cn3C)C2 [Example 122044] | 6.80 | 1.383
